Assay results published in patent US20250338846A1, “COMPOSITIONS HAVING PESTICIDAL UTILITY AND PROCESSES RELATED THERETO” (CORTEVA AGRISCIENCE, LLC, priority 2022, published 2025).

Key:
Type in all cases: in vivo
[1] = test system: Sweet Potato Whitefly (Bemisia tabaci, BEMITA); assay: Bioassay 8: Sweet Potato Whitefly, spray on cotton seedlings at crawler emergence, nymphs counted 7-9 days after treatment; details: AI alone 0.1 (10^-5) Wt %
Experimental: where X=No. of live aphids on solvent check plants and Y=No. of live aphids on treated plants. In Table B1 the “Expected % Control” was calculated using the method described in Colby S. R., Weeds, 1967, 15, 20-22. Bioassay 8: Sweet Potato Whitefly (Bemisia tabaci, BEMITA) (“SPW”).
(§1) Stock solutions were prepared with Formula One as well as for each of the active ingredients individually. Test solutions were prepared from the stock solutions. Test solutions were prepared containing Formula One, the individual active ingredients, and mixtures of Formula One with each of the active ingredients. The test solutions for Formula One and the individual active ingredients were prepared by adding 500 μL of stock solution to a 25 mL glass vial, then adding 500 μL of acetone, followed by the addition of 9 mL water with 0.025% Tween®) 20 to create a 0.001% (w/v) solution. The test solutions containing mixtures of Formula One and the individual active ingredients were prepared by adding 500 μL of the active ingredient stock solution to a 25 mL glass vial, followed by 500 μL of the Formula One stock solution, then by the addition of 9 mL water with 0.025% Tween®) 20 to create a test solution containing 0.001% (w/v) Formula One and 0.001% (w/v) of the active ingredient. Each test solution was serially diluted to create desired doses of test solutions (0.001% (w/v), 0.0001% (w/v), 0.00001% (w/v), 0.000001% (w/v), 0.0000001% (w/v), 0.000008% (w/v) and 0.00000001% (w/v)).
(§2) The test solutions were tested against SPW using the following procedure: Cotton seedlings grown in 3-inch pots, pruned so that only one true leaf remained, were used as test substrate. Adult B. tabaci were allowed to colonize the cotton plants and lay eggs for 24 hours after which all adults were removed from the plants using compressed air. Plants were monitored for egg development and, when crawler emergence was underway (>25% emergence based on visual examination using a microscope), the plants were sprayed using the test solutions and methods described above for green peach aphids (GPA). Treated plants were held in a holding room at approximately 25° C. and ambient relative humidity (RH) prior to grading. Evaluation was conducted by counting the number of developed 2-3 instar nymphs per plant under a microscope 7-9 days after treatment. Percent control was measured using Abbott's correction formula (W. S. Abbott, J. Econ. Entomol. 18 (1925), pp. 265-267) as follows:
where X=No. of live nymphs on solvent check plants and Y=No. of live nymphs on treated plants. In Table B2 the “Expected % Control” was calculated using the method described in Colby S. R., Weeds, 1967, 15, 20-22. Bioassay 9: Diamondback Moth (Plutella xylostella, PLUTMA) (DBM).

[2] = test system: Neotropical Brown Stink Bug (Euschistus heros, EUSCHE); assay: whole plant or invertebrate
Experimental: (§3) X=No. of live nymphs on solvent check and Y=No. of live nymphs on treated bean segments. In Table B4 the “Expected % Control” was calculated using the method described in Colby S. R., Weeds, 1967, 15, 20-22. Bioassay 5: Neotropical Brown Stink Bug (Euschistus heros, EUSCHE) (“BSB”).
Stock solutions were prepared with Formula One as well as for each of the active ingredients individually. Test solutions were prepared from the stock solutions. Test solutions were prepared containing Formula One, the individual active ingredients, and mixtures of Formula One with each of the active ingredients. The test solution for Formula One was prepared by adding 500 μL of the stock solution to a 25 mL glass vial, then adding 500 μL of acetone, followed by the addition of 9 mL water with 0.025% Tween®) 20 to create a 0.04% (w/v) solution. The individual active ingredients were prepared by adding 500 μL of stock solution to a 25 mL glass vial, then adding 500 μL of acetone, followed by the addition of 9 mL water with 0.025% Tween®) 20 to create a 0.005% (w/v) solution. The test solutions containing mixtures of Formula One and the individual active ingredients were prepared by adding 500 μL of the active ingredient stock solution to a 25 mL glass vial, followed by 500 μL of the Formula One stock solution, then by the addition of 9 mL water with 0.025% Tween®) 20 to create a test solution containing 0.04% (w/v) Formula One and 0.005% (w/v) of the active ingredient. Each test solution was serially diluted to create desired doses of test solutions (0.01% (w/v), 0.0025% (w/v), 0.000625% (w/v), 0.000156% (w/v), and 0.000039% (w/v)). In test solutions containing mixtures of Formula One and the active ingredients, the active ingredients were diluted as described above, but the Concentration of Formula One was held constant (0.04% (w/v)).
The test solutions that were tested against BSB were similar to those described above for WTPB. Fresh green beans were cut into segments approximately 1.5 inches long. Four bean segments were added to each test solution and soaked for approximately 15 minutes. After soaking, a single bean fragment was removed and placed into a single well of a 32-well rearing tray (Frontier Agricultural Sciences™), on top of a round filter paper disc. A reference treatment (solvent check) was treated with the diluent only. Each treatment was replicated four times and the test treatments were held at approximately 26° C. and ambient relative humidity (RH) prior to grading. Bean segments were allowed to air dry for ˜30 minutes. Three BSB nymphs were added to and contained in each well with a clear perforated adhesive lid. The total number of living BSB nymphs was recorded 3 days after application. Scoring was based off the total number of living nymphs out of all four replicates. Percent control was measured using Abbott's correction formula (W. S. Abbott, J. Econ. Entomol. 18 (1925), pp. 265-267) as follows:
where X=No. of live nymphs on solvent check and Y=No. of live nymphs on treated bean segments. In Table B5 the “Expected % Control” was calculated using the method described in Colby S. R., Weeds, 1967, 15, 20-22. Bioassay 6: Beet Armyworm (Spodoptera exigua, LAPHEG) (BAW), and Diamondback Moth (Plutella xylostella, PLUTMA) (DBM).

[3] = test system: Western Tarnished Plant Bug (Lygus hesperus, LYGUHE); assay: Bioassay 4: Western Tarnished Plant Bug, soaked green bean segments, living nymphs 3 days after application
Experimental: where X=No. of live nymphs on solvent check leaf discs and Y=No. of live nymphs on treated leaf discs. In Table B3 the “Expected % Control” was calculated using the method described in Colby S. R., Weeds, 1967, 15, 20-22. Bioassay 4: Western Tarnished Plant Bug (Lygus hesperus, LYGUHE) (“WTPB”).
Stock solutions were prepared with Formula One as well as for each of the active ingredients individually. Test solutions were prepared from the stock solutions. Test solutions were prepared containing Formula One, the individual active ingredients, and mixtures of Formula One with each of the active ingredients. The test solution for Formula One was prepared by adding 500 μL of the stock solution to a 25 mL glass vial, then adding 500 μL of acetone, followed by the addition of 9 mL water with 0.025% Tween®) 20 to create a 0.04% (w/v) solution. The test solutions of the individual active ingredients were prepared by adding 500 μL of stock solution to a 25 mL glass vial, then adding 500 μL of acetone, followed by the addition of 9 mL water with 0.025% Tween®) 20 to create a 0.005% (w/v) solution. The test solutions containing mixtures of Formula One and the individual active ingredients were prepared by adding 500 μL of the active ingredient stock solution to a 25 mL glass vial, followed by 500 μL of the Formula One stock solution, then by the addition of 9 mL water with 0.025% Tween®) 20 to create a test solution containing 0.04% (w/v) Formula One and 0.005% (w/v) of the active ingredient. Each test solution was serially diluted to create desired doses of test solutions (0.005% (w/v), 0.00125% (w/v), 0.0003125% (w/v), 0.000078% (w/v), and 0.0000195% (w/v)). In test solutions containing mixtures of Formula One and the active ingredients, the active ingredients were diluted as described above, but the Concentration of Formula One was held constant (0.04% (w/v)).
The test solutions were tested against WTPB using the following procedure: Fresh green beans were cut into segments approximately 1.5 inches long. Four bean segments were added to each 25 mL vial containing the test solutions and soaked for approximately 15 minutes. After soaking, a single bean fragment was removed and placed into a single well of a 32-well rearing tray (Frontier Agricultural Sciences™), on top of a round filter paper disc. A reference treatment (solvent check) was treated with the diluent only. Each treatment was replicated four times and the test treatments were held at approximately 26° C. and ambient relative humidity (RH) prior to grading. Bean segments were allowed to air dry for ˜30 minutes. Three WTPB nymphs were added to and contained in each well with a clear perforated adhesive lid. The total number of living WTPB nymphs was recorded 3 days after application. Scoring was based off the total number of living nymphs out of all four replicates. Percent control was measured using Abbott's correction formula (W. S. Abbott, J. Econ. Entomol. 18 (1925), pp. 265-267) as follows:
as §3

[4] = test system: Sweet Potato Whitefly (Bemisia tabaci, BEMITA); assay: Bioassay 2: Sweet Potato Whitefly, spray on cotton seedlings at crawler emergence, nymphs counted 7-9 days after treatment; details: AI alone 1 (10-5) % w/v
Experimental: as §1, with “(w/v),” for “(w/v), 0.000008% (w/v)”
as §2
where X=No. of live nymphs on solvent check plants and Y=No. of live nymphs on treated plants. In Table B2 the “Expected % Control” was calculated using the method described in Colby S. R., Weeds, 1967, 15, 20-22. Bioassay 3: Western Flower Thrips (Frankliniella occidentalis, FRANOC) (“WFT”).

In the case of `CC1(C)C(C=C(Cl)Cl)C1C(=O)OC(C#N)c1ccc(F)c(Oc2ccccc2)c1` (stereo not drawn) [Cyfluthrin], the “Average % Control A1” value [1] was 46.90%.
For `CC(c1ccc(C(F)(F)F)nc1)S(C)(=O)=NC#N` (stereo not drawn) [Sulfoxaflor], the pest or weed control at 0.0025 % strength ([2]; Euschistus heros, 72 h, AI alone 0.0025 % w/v, read-out: Average % Control AI) was 58% and the “Average % Control AI” value ([3]; AI alone 0.0003125 % w/v) was 0%.
With Spinetoram the “Average % Control AI” value ([2]; AI alone 0.000625 % w/v) was 8%, the “Average % Control AI” value [4] was 41% and the “Average % Control AI” value ([3]; AI alone 0.005 % w/v) was 0%.
